From ChEMBL document CHEMBL1201862, “PubChem BioAssay data set” (2004) come the findings set out here.

Test systems include SK-MEL-28; SF-268; HOP-92; SN12C; OVCAR-3; CAKI-1; TK-10; UACC-257; SNB-19; K562; CCRF-CEM; SNB-75; NCI-H522; HCC 2998; OVCAR-5; MDA-MB-435; SF-295; MOLT-4; UACC-62; UO-31.
Holding throughout (assay): NCI-60 cell line screen, 48 h

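48-hour exposure; five concentrations; linearly interpolated endpoints. At the GI50, growth is halved.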 Calls of active or inactive are those of the source. Cut-off read from the data, not from the text of the source: active = GI50 up to about 1.1 µM and inactive = higher.

For the compound `C[C@H](CCC1=NCCN1)[C@H]1CC[C@H]2[C@@H]3CC[C@@H]4C[C@H](O)CC[C@]4(C)[C@H]3C[C@H](O)[C@]12C`, the GI50 in the test on SK-MEL-28 is 18.6 µM (inactive); in the test on SF-268, 7.36 µM (inactive); with HOP-92, 12.2 µM (inactive); with SN12C, 16.9 µM (inactive); in the test with OVCAR-3 it was 12.1 µM (inactive); in the test on CAKI-1, 20.4 µM (inactive). Besides, the GI50 is 14 µM (inactive) in the test with TK-10; 15.4 µM (inactive) with UACC-257; 8.71 µM (inactive) in the test with SNB-19; 5.38 µM (inactive) with K562; 10.7 µM (inactive) with CCRF-CEM; 2.37 µM (inactive) in the test with SNB-75. Moreover, the GI50 is 5.75 µM (inactive) in the test with NCI-H522; 13.5 µM (inactive) with HCC 2998; 14.5 µM (inactive) in the test with OVCAR-5; 14.5 µM (inactive) with MDA-MB-435; 15.6 µM (inactive) in the test on SF-295; 3.13 µM (inactive) with MOLT-4. For the same compound, the GI50 was 13.5 µM (inactive) in the test on UACC-62 and 18.6 µM (inactive) with UO-31.
On to `C=C1CC(Cn2ccc(=O)[nH]c2=O)(c2ccc(-c3ccccc3)cc2)OC1=O` (stereo not given), for which the GI50 in the test with SK-MEL-28 was 2.45 µM (inactive); with SF-268 it was 16.1 µM (inactive); with HOP-92 it was 1.2 µM (inactive); in the test with SN12C it was 4.6 µM (inactive); in the test with OVCAR-3, 1.98 µM (inactive); with CAKI-1 it was 1.16 µM (inactive). For the same compound, the GI50 with TK-10 is 1.03 µM (active); with UACC-257, 1.65 µM (inactive); in the test with SNB-19, 16.9 µM (inactive); with K562, 0.208 µM (active); in the test on CCRF-CEM, 0.305 µM (active); in the test with SNB-75, 13.6 µM (inactive). Further, the GI50 with NCI-H522 was 0.836 µM (active); with HCC 2998, 2.07 µM (inactive); with OVCAR-5, 10 µM (inactive); in the test with MDA-MB-435, 1.69 µM (inactive); with SF-295, 12.5 µM (inactive); with MOLT-4 it was 1.5 µM (inactive). Further, the GI50 was 0.764 µM (active) in the test with UACC-62 and 6.64 µM (inactive) with UO-31.
On to `CCc1nc(N)c2nc(-c3cccs3)oc2n1`, for which the GI50 with SK-MEL-28, in the test with SF-268, in the test with HOP-92, with SN12C, with OVCAR-3 and with CAKI-1 was > 100 µM (inactive) in each case. In addition, the GI50 in the test on TK-10 was > 100 µM (inactive); in the test on UACC-257, > 100 µM (inactive); with SNB-19, 9.25 µM (inactive); in the test on K562, > 100 µM (inactive); in the test with CCRF-CEM it was 77.1 µM (inactive); in the test with SNB-75 it was 71.4 µM (inactive). Besides, the GI50 in the test on NCI-H522, in the test on HCC 2998, in the test on OVCAR-5, in the test with MDA-MB-435, in the test with SF-295 and with MOLT-4 was > 100 µM (inactive) throughout. Also, the results for the GI50 with UACC-62 and with UO-31 were > 100 µM (inactive) and 65.6 µM (inactive), respectively.
For `OC(c1ccc(-c2ccccc2)cc1)C(F)(F)c1nc2ccccc2o1` (stereo not given), the GI50 is > 100 µM (inactive) in the test with SK-MEL-28; 54.5 µM (inactive) with SF-268; 29.9 µM (inactive) in the test with HOP-92; 50.5 µM (inactive) with SN12C; 35.8 µM (inactive) in the test on OVCAR-3; 25.1 µM (inactive) with CAKI-1. Besides, the GI50 in the test with TK-10 was 38.3 µM (inactive); in the test with UACC-257 it was 40.3 µM (inactive); in the test on SNB-19, 49 µM (inactive); in the test on K562, 18.2 µM (inactive); with CCRF-CEM it was > 45 µM (inactive); in the test on SNB-75 it was 27.8 µM (inactive). Also, the GI50 is 25 µM (inactive) in the test with NCI-H522; > 100 µM (inactive) in the test on HCC 2998; > 100 µM (inactive) in the test with OVCAR-5; > 86.9 µM (inactive) in the test on MDA-MB-435; 96.4 µM (inactive) in the test on SF-295; 28.5 µM (inactive) in the test with MOLT-4. The values for the GI50 with UACC-62 and in the test with UO-31 were > 78 µM (inactive) and 55 µM (inactive), respectively.
